PubChem BioAssay (NCI)
“And” between values parts separate entries of the source, which are not always exact repeats. Equal values may be shown once.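 1) Cells in 96-well plates. 2) Compound, 48 h, 5 concentrations. 3) Linear interpolation between surrounding doses. 4) Unreached endpoint = highest concentration. At the GI50, growth is halved. TGI: concentration producing complete growth inhibition.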

Columns and labels:
Experiment in all cases: inhibition of tumour cell growth, NCI panel, 48 h
786-0 renal = test system: 786-0 renal
A498 renal = test system: A498 renal
BT-549 breast = test system: BT-549 breast
HCT-15 colon = test system: HCT-15 colon
KM12 colon = test system: KM12 colon
MALME-3M melanoma = test system: MALME-3M melanoma
NCI-H23 lung = test system: NCI-H23 lung
SNB-75 CNS = test system: SNB-75 CNS
SW-620 colon = test system: SW-620 colon
UO-31 renal = test system: UO-31 renal

Row | SMILES | GI50 (786-0 renal) [µM] | TGI (786-0 renal) [µM] | GI50 (A498 renal) [µM] | TGI (A498 renal) | GI50 (BT-549 breast) | TGI (BT-549 breast) | GI50 (HCT-15 colon) [µM] | TGI (HCT-15 colon) [µM] | GI50 (KM12 colon) [µM] | TGI (KM12 colon) [µM] | GI50 (MALME-3M melanoma) [µM] | TGI (MALME-3M melanoma) | GI50 (NCI-H23 lung) [µM] | TGI (NCI-H23 lung) [µM] | GI50 (SNB-75 CNS) [µM] | TGI (SNB-75 CNS) | GI50 (SW-620 colon) [µM] | TGI (SW-620 colon) [µM] | GI50 (UO-31 renal) [µM] | TGI (UO-31 renal) [µM]
1 | O=C(Nc1ccc(Cl)c(Cl)c1)c1cccc(NC2=C(Cl)C(=O)N(Cc3ccccc3)C2=O)c1 | 48.4 | > 100 | 23.8 | > 100 µM | 17.3 µM | 87.1 µM | 36.6 | > 100 | 69 | > 100 | 62.1 | > 100 µM | 37.1 | > 100 | > 100 | > 100 µM | 48.8 | > 100 | 34.6 | > 100
2 | C/C(=N\NC(=O)c1sc(=S)n(C)c1N)c1cc2ccccc2o1 | 14.9 | 29.8 | 4.58 | 18.9 µM | 18.3 µM | 41.8 µM | 10.6 | 24.9 | 9.12 | 25.8 | 28.1 | 56.9 µM | 17.7 | 58.8 | 17.3 | 42.6 µM | 14.8 | 28.4 | 18.3 | 37.8
3 | CCOC(=O)c1c2c(c(O)c3ccccc3c(O)n(Cc3ccc(OC)cc3)c1C)C(=O)C=CC2=O | > 100 | > 100 | > 100 | > 100 µM | > 100 µM | > 100 µM | > 100 | > 100 | > 100 | > 100 | > 100 | > 100 µM | > 100 | > 100 | > 100 | > 100 µM | > 100 | > 100 | > 100 | > 100
4 | COC(=O)CCC(=O)C(=O)OC | 33000 | – | 18500 | 39700 µM | 26300 µM | 96200 µM | 31500 | – | 27900 | – | 37900 | – | 27400 | 95700 | 14800 | – | 53600 | – | 15000 | 85700
5 | CCCCON(OC(=O)c1ccccc1)C(=O)c1ccccc1 | > 100 | > 100 | > 100 | > 100 µM | > 100 µM | > 100 µM | > 100 | > 100 | > 100 | > 100 | > 100 | > 100 µM | > 100 | > 100 | > 100 | > 100 µM | > 100 | > 100 | > 100 | > 100
6 | CC(C)[C@]12O[C@H]1[C@@H]1O[C@]13[C@]1(O[C@H]1C[C@H]1C4=C(CC[C@@]13C)C(=O)OC4)[C@@H]2O | 0.0303 | > 100 | 0.0274 | 0.0454 µM and 0.0828 µM | 0.0214 µM and < 0.013 µM | 0.178 µM and 0.0347 µM | 0.0122 | > 2.93 | 0.102 | – | 0.018 | 0.0328 µM and 0.0467 µM | – | 0.0156 | 0.0168 | 0.035 µM and 0.0398 µM | < 0.01 | – | 0.0183 | > 100
